Measured values taken from patent US7915291B2, “Hepatitis C virus inhibitors” (Bristol-Myers Squibb Company, priority 2002, dated 2011).
Like-named read-outs stand apart in the source and are kept apart here.

How the values were obtained:
[1] = test system: HCV replicon in Huh7 cells; assay: HCV replicon cell-based assay; set-up: species or system HCV strain 1B; details: Hepatitis C virus, Huh-7, HCV replicon, Huh7 cells
[2] = molecular target: T1, porcine pancreatic elastase (PPE) (Sus scrofa, UniProt P00772); assay: Specificity assay, PPE; type: biochemical; details: 2 hr pre-incubation
T1 construct: purchased Sigma
Description: The specificities of compounds of the present invention were determined against a variety of serine proteases: human leukocyte elastase (HLE), porcine pancreatic elastase (PPE) and human pancreatic chymotrypsin and one cysteine protease: human liver cathepsin B. In all cases a 96-well plate format protocol using colorimetric p -nitroaniline (pNA) substrate specific for each enzyme was used as described previously (Patent WO 00/09543) with some modifications to the serine protease assays. All enzymes were purchased from Sigma while the substrates were from Bachem.
Each assay included a 2 hr enzyme-inhibitor pre-incubation at RT followed by addition of substrate and hydrolysis to ˜30% conversion as measured on a Spectramax Pro microplate reader. Compound concentrations varied from 100 to 0.4 μM depending on their potency. […]
The percentage of inhibition was calculated using the formula: [1−((UVinh−UVblank)/(UVctl−UVblank))]×100 […]

T1 sequence (P00772 27-266): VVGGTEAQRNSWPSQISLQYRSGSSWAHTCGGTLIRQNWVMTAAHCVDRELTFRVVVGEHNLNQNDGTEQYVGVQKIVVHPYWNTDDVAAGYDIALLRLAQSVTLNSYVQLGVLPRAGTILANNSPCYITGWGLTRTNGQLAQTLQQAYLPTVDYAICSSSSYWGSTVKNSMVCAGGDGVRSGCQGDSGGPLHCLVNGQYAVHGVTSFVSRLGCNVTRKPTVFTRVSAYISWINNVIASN

SMILES: C=C[C@@H]1C[C@]1(NC(=O)[C@@H]1C[C@@H](Oc2nc(C3CC3)cc3ccccc23)CN1C(=O)[C@@H](NC(=O)OC(C)(C)C)C(C)(C)C)C(=O)NS(=O)(=O)C1CC1 [Compound 34]
- EC50 ([1]; read-out: EC50 range): 100 to 1000 nM
- EC50 ([1]; read-out: EC50 value in the replicon assay): 166 nM
- IC50 [2]: > 200000 nM
